US20170226518A1, “COMPOSITIONS AND METHODS FOR TREATING CANCER” (Autotelic LLC, priority 2016, published 2017)
In the oligonucleotide strings, read from the 5' end, every base follows the letter of its sugar. An asterisk marks phosphorothioate; unmarked linkages are phosphodiester. Other units and linkages are bracketed, terminal groups are in braces. A string of capitals states the bases alone. d = 2'-deoxy (DNA)

Assays:
[1] = Preclinical toxicology in Cynomolgus monkeys (LOAEL); type: in vivo
Description: (§1) The clinical starting dose for the 7-days-on and 7-days-off schedule was based on the Lowest-Observed-Adverse-Effect-Level (LOAEL) devoid of severe toxicity in Cynomolgus monkeys as the most relevant species. This LOAEL of 4 mg/kg body weight (b.w.)/day is equivalent to approximately 1.3 mg/kg b.w./day or 48 mg/m^2/day on a body surface area basis in human adults. These numbers were rounded down and the safe starting dose was defined at 40 mg/m^2/day, equivalent to approximately 1 mg/kg b.w./day in humans. An alternative approach would have been based on the lowest lethal dose (LLD) of 300 mg/kg b.w. obtained in the acute single dose toxicity study in mice (in rats it was determined at 1000 mg/kg), at which 1 of 10 mice died (LLD10). According to the standard method, 10% of this dose (30 mg/kg) on a body surface area basis would then be defined as the clinical starting dose resulting in 90 mg/m^2/day. In the end, the lower of the two alternatives was chosen as starting dose.

TGFβ2 [2] = assay: TGFβ2 secretion/expression in WiDr colon cancer cells; type: cell-based; conditions: 10 μM AP12009
Description: (§2) The aim of the study was to determine the effect of AP12009 (trabedersen) treatment in combination with 5-Fluorouracil (5-FU) on TGFβ2 secretion and on cellular proliferation of HUP-T3 pancreatic cancer cells and WiDr colon cancer cells in vitro.

TGFβ2 [3] = assay: TGFβ2 secretion in A-172 glioma cells; type: cell-based; conditions: 7 days, treatment schedule 2*2/1*3 d
Description: (§3) A-172 glioma cells were treated with a combination of AP12009 (trabedersen) 0 to 10 μM) and different concentrations of TMZ (temozolomide) for 7 days (treatment schedule 2*2/1*3 d).
In summary there is no clear beneficial effect in combining AP12009 with TMZ in A-172 cells.

[4] = Acute single dose toxicity study in mice; type: in vivo; conditions: 1 of 10 mice died (LLD10)
Description: as §1

A-172 glioma cells = assay: Migration of A-172 glioma cells; type: cell-based; conditions: AP12009 10 μM as monotherapy, compared with untreated control
Description: as §3

WiDr colon cancer cells = assay: Cellular proliferation of WiDr colon cancer cells in vitro; type: cell-based; conditions: 10 μM AP12009
Description: as §2

[5] = system: C8161 human melanoma cells; assay: C8161 melanoma xenograft model: tumor growth and survival
Description: Sixty female athymic nude mice were intradermally inoculated with C8161 human melanoma cells and randomized into six groups of 10 mice. Three groups received monotherapy treatment with either OT-101 (trabedersen) (16 mg/kg) (Group 2) or Dacarbazine (DTIC; 1 or 10 mg/kg; Groups 3, 4). Two groups received combination therapy with OT-101/DTIC at 16/1 mg/kg or 16/10 mg/kg (Groups 5 and 6). Vehicle (0.9% saline, Groups 1, 3, and 4) and OT-101 were administered 3 times/week via subcutaneous injection. Vehicle (0.9% saline, Groups 1 and 2) and DTIC (1 or 10 mg/kg) were administered via intraperitoneal injection four times/week. All OT-101/Trabedersen treatments commenced at day 0 of the study and all DTIC treatments commenced on day 14. Mice were monitored for adverse effects, body weight and tumor size three times weekly. The tumor, lungs, liver and kidneys were excised from all mice at termination and weighed.

pancreatic cancer = assay: Phase I/II study P-001: PFS and OS in pancreatic cancer patients; type: in vivo, human; conditions: for OS: pancreatic cancer; for OS (overall survival) / PFS (progression free survival): second line pancreatic cancer patients, 4 days on and 10 days off
Description: (§4) At screening, up to 10 “measurable lesions” (i.e. lesions that could be accurately measured in at least 1 dimension with a longest diameter of 2 cm) representative of all involved organs were identified as “target lesions” for tumor response assessment and were measured and documented. All other lesions were defined and recorded as “non-target lesions”. Tumor response was determined by the local investigator every 8 weeks after start of the first trabedersen cycle during follow-up visits, irrespective of whether the patient was still on treatment or off treatment. The tumor assessment was based on Response Evaluation Criteria in Solid Tumors (RECIST 1.0) criteria. The categories of overall tumor response are as follows: (1) Complete response (CR): disappearance of all target and non-target lesions and normalization of tumor marker level; (2) Partial response (PR): at least 30% decrease in the sum of the longest diameter (LD) of target lesions (baseline sum LD as reference) and/or persistence of one or more non-target lesions and/or maintenance of tumor marker level above normal limits; (3) Stable disease (SD): less than 30% decrease or less than 20% increase in sum LD target lesions (smallest sum LD since treatment start as reference) and/or persistence of one or more non-target lesions and/or maintenance of tumor marker level above normal limits; (4) Progressive disease (PD) At least 20% increase in sum LD target lesions (smallest sum LD since treatment start as reference) and/or unequivocal progression of existing nontarget lesions and/or appearance of one or more new lesions; and (5) Unknown.
(§5) Progression-free survival (PFS) was defined as the time from Day 1 until tumor progression or death from any cause. The date of progression was either the date of the image showing progression or the date of treatment termination in case one of the reasons for treatment termination was tumor progression (referring to clinical progression as assessed by the Investigator), whichever occurred first.
Overall survival (OS) was defined as the time from Day 1 until death from any cause. All patients were followed for survival during the follow-up assessments every 8 weeks. The survival status was documented at the Final Visit (Day 29) and during the 8-weekly post-treatment follow-up assessments, and was continued to be collected after study closure until database lock or until the patient was lost to follow-up.
There were […] line patients and 11 third line and beyond on the 4 days on and 10 days off regimen. The PFS/OS (progression free survival/overall survival ratio) of these second line patients in months were: 1.87/5.60 (N=6), 1.87/9.93 (N=11) and 2.72/11.80 (N=5) at increasing mean dose of 140 mg/m^2/day, 167 mg/m^2/day, and 196 mg/m^2/day, respectively. The OS of 9.93 and 11.80 are higher than the highest reported in the 65 trials reported in the literature during 1997-2015 (range=2.50-9.20/median=5.50). The corresponding PFS values were in line with reported literature (range=0.00-7.65/median=2.43). […] Trabedersen itself was not having an impact on the tumor (FIG. 1).

melanoma = assay: Phase I/II study P-001: PFS and OS in melanoma patients; type: in vivo, human
Description: as §4, §5
Overall survival (OS) was defined as the time from Day 1 until death from any cause. All patients were followed for survival during the follow-up assessments every 8 weeks. […]
The primary objective was to determine the maximum tolerated dose (MTD) and the dose-limiting toxicity (DLTs) of two cycles of trabedersen administered intravenously (i.v.) for 7 days (7 days on and 7 days off) or for 4 days every other week (4 days on and 10 days off). The secondary objectives included assessment of the potential antitumor activity of trabedersen administered i.v. at weekly intervals and for four days every other week, as assessed by survival. […]

[6] = mean dose 167 mg/m^2/day (N=11)

trabedersen: TGFβ2 specific phosphorothioate antisense oligodeoxynucleotide with the sequence 5′-CGGCATGTCTATTTTGTA-3′ (SEQ ID No: 1) (antisense dC*dG*dG*dC*dA*dT*dG*dT*dC*dT*dA*dT*dT*dT*dT*dG*dT*dA)
Lowest-Observed-Adverse-Effect-Level (LOAEL) devoid of severe toxicity [1]: 4 mg/kg body weight (b.w.)/day | TGFβ2 expression (% of untreated control) (TGFβ2 [2]): 54% | effect on TGFβ2 secretion (TGFβ2 [3]): strongly reduced TGFβ2 | lowest lethal dose (LLD) [4]: 300 mg/kg b.w. | effect on migration of A-172 cells (A-172 glioma cells): did not affect migration | cell proliferation (% of untreated control) (WiDr colon cancer cells): 76% | Tumor growth suppressed relative to control group 1 ([5]; day 42, group 2: OT-101 16 mg/kg s.c. 3 times/week from day 0): 2% | median survival ([5]; group 2: OT-101 16 mg/kg, sacrifice at tumor size 2,000 mm^3): 47 days | overall survival (OS) rate versus dose (pancreatic cancer; pancreatic cancer patients, trabedersen as second line treatment (FIG. 1)): dose dependent increase | OS (pancreatic cancer; 4/10 cohort treated with subsequent chemotherapies): 14.7 mos | OS (pancreatic cancer; 4/10 cohort without subsequent chemotherapies): 2.93 mos | OS (pancreatic cancer; chemotherapy on 2nd line followed with trabedersen 4/10 regimen as third line (N=9)): 2.80 mos | OS (pancreatic cancer; trabedersen first on 2nd line followed with subsequent therapies (N=11)): 9.93 mos | OS (overall survival) (pancreatic cancer; mean dose 140 mg/m^2/day (N=6)): 5.60 months | PFS (progression free survival) (pancreatic cancer; mean dose 140 mg/m^2/day (N=6)): 1.87 months | OS (overall survival) (pancreatic cancer; [6]): 9.93 months | PFS (progression free survival) (pancreatic cancer; [6]): 1.87 months | OS (overall survival) (pancreatic cancer; mean dose 196 mg/m^2/day (N=5)): 11.80 months | PFS (progression free survival) (pancreatic cancer; mean dose 196 mg/m^2/day (N=5)): 2.72 months | Median progression free survival (PFS) (melanoma; 15 patients): 1.77 mos | median OS (melanoma; all doses, 19 patients): 11.4 mos | OS (melanoma; trabedersen followed by subsequent chemotherapy (N=9)): 13.70 mos | OS (melanoma; without subsequent chemotherapy (N=7)): 5.5 mos
